Active and inactive are the calls of the source. No cut-off for these calls is given here.
How the values were obtained:
[1] = target: Transcription factor p65 (Mus musculus) (UniProt Q04207); test: Inhibition of NFkappaB activation in mouse RAW264.7 cells assessed as reduction in TNFalpha-induced p65 phosphorylation at 1 to 4 uM incubated for 2 hrs after pre-incubation with LPS for 15 mins by Western blot analysis; assay type: cell-based
[2] = target: T1, NF-kappa-B inhibitor alpha (Mus musculus) (UniProt Q9Z1E3); test: Inhibition of NFkappaB signalling activation in mouse RAW264.7 cells assessed as reduction in […] IkBalpha phosphorylation at 1 to 4 uM incubated for 2 hrs after pre-incubation with LPS for 15 mins by Western blot analysis; assay type: cell-based
T1 sequence (whole entry): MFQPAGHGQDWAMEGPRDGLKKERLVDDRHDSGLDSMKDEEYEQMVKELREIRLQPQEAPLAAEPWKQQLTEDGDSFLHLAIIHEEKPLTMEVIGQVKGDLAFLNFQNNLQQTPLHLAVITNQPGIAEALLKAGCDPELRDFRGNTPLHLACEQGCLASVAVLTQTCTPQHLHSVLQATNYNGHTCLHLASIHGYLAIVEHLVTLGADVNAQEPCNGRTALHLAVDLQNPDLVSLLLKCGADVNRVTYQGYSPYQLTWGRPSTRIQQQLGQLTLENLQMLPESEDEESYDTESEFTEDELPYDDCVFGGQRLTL

[3] = system: HepG2; test: Induction of apoptosis in human HepG2 cells assessed as increase in cleaved caspase-3 expression up to 4 uM after 24 hrs by Western blot analysis; assay type: functional, cell-based
[4] = system: SMMC-7721; test: Cytotoxicity against human SMMC7721 cells assessed as reduction in cell viability incubated for 24 hrs by MTT assay; assay type: functional, cell-based
[5] = system: RAW264.7; test: Antiinflammatory activity in mouse RAW264.7 cells assessed as inhibition of LPS-stimulated TNF-alpha production at 6.0 uM preincubated for 2 hrs followed by LPS stimulaton measured after 22 hrs by ELISA relative to control; assay type: functional
[6] = system: HepG2; test: Antitumor activity against human HepG2 cells xenografted in Balb/c nude mouse assessed as effect on tumor volume level at 1 mg/kg, ip administered every 2 days for 20 days and measured every 2 days; assay type: functional, organism-based
[7] = target: Transcription factor p65 (Homo sapiens) (UniProt Q04206); test: Inhibition of LPS-induced NFkappaB p65 nuclear translocation in human HepG2 cells at 4 uM incubated for 2 hrs after pre-incubation with LPS for 15 mins by DAPI staining-based immunofluorescence assay; assay type: cell-based
[8] = system: RAW264.7; test: Antiinflammatory activity in mouse RAW264.7 cells assessed as inhibition of LPS-stimulated IL-6 production 6.0 uM preincubated for 2 hrs followed by LPS stimulaton measured after 22 hrs by ELISA relative to control; assay type: functional
[9] = system: SMMC-7721; test: Induction of apoptosis in human SMMC7721 cells assessed as increase in apoptotic cell population at 2.0 uM incubated for 24 hrs by Annexin V-FITC/propidium iodide staining based flow cytometry relative to control; assay type: functional

Transcription factor p65 (Mus musculus), sequence (Q04207 whole entry): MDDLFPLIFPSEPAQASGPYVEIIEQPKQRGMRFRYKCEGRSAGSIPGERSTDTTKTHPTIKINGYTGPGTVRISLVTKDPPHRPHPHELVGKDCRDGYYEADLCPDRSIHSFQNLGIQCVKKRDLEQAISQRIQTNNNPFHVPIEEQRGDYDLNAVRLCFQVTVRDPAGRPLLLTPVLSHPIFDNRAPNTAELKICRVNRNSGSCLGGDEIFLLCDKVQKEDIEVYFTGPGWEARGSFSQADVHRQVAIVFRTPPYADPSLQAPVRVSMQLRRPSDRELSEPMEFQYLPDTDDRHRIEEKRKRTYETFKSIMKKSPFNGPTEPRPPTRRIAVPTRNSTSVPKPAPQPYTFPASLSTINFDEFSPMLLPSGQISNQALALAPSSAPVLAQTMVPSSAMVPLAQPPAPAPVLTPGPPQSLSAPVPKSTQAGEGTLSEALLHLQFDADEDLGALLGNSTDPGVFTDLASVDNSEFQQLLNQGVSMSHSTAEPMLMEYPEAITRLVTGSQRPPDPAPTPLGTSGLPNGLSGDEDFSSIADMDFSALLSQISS
Transcription factor p65 (Homo sapiens), sequence (Q04206 whole entry): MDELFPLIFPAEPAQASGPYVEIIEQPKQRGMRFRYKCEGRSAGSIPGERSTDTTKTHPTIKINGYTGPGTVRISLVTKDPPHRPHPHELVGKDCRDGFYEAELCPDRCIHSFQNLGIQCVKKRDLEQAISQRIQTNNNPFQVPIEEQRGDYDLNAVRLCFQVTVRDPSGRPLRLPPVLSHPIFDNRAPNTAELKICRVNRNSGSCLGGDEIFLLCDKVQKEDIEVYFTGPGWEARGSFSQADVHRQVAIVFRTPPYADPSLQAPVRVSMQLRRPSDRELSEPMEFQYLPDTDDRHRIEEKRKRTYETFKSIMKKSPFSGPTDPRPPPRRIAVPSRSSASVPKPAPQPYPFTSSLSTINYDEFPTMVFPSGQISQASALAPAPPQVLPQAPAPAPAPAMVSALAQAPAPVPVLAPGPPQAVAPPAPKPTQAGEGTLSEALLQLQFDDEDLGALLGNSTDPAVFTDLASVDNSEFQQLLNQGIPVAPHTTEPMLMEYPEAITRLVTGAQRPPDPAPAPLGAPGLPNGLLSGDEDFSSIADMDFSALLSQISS

Structure (SMILES): O=C1/C(=C/c2cccnc2)CN(S(=O)(=O)c2ccc(C(F)(F)F)cc2)C/C1=C\c1ccccc1C(F)(F)F
- inhibition [1]: Dose-dependent effect
- inhibition [2]: Dose-dependent effect
- Activity [3]: Dose-dependent effect
- Activity [4]: Dose-dependent effect
- IC50 ([4]; SMMC-7721, 24 h): 1.73 µM
- inhibition at 6 µM [5]: ≤ 15%
- Activity [6]: inactive
- inhibition [7]: Active
- inhibition (INH) [8]: <=15%
- Activity [9]: 40%

— ChEMBL document CHEMBL4339189, “Dissymmetric pyridyl-substituted 3,5-bis(arylidene)-4-piperidones as anti-hepatoma agents by inhibiting NF-κB pathway activation” (Eur J Med Chem, 2019)
